Laboratory results from patent US20200306283A1, “CANCER TREATMENT AND METASTASIS INHIBITION USING AN ANTI-CANCER STEM CELL AGENT IN COMBINATION WITH A NEU1 SIALIDASE INHIBITOR OR A CYTOKINE INHIBITOR AFTER PRIMARY CANCER TREATMENT” (priority 2016, published 2020).

How the values were obtained:
[1] = test system: HCT-15 cells; assay: Cell subpopulations (CD44/CD24) in HCT-15 cell line after cytokine exposure, imaging flow cytometry; assay type: cell-based; design: unit not given here; settings: HCT-15 cells after exposure to cytokines singly or in pairs
Protocol: Two authenticated colorectal carcinoma cell lines, HCT-15 and SW-620, were used to test the effect of different cytokine and cytokine cocktails, including IL-6, HGF, PGE-2, TGF-beta and MMP-9 alone or in a cocktail, on cell proliferation, EMT and cancer stem cell populations.
In order to evaluate stem cell populations, cells were synchronized by serum starvation for 72 hours before seeding in 24-well ultra low attachment plates at a density of 200,000 cells/well. Cells were then detached using trypsin EDTA and washed twice with PBS (without Calcium or Magnesium). A cell proliferation dye, eFluor 450 was used to label cells. Cells were grown with DMEM with high glucose and 2 mM Gluatmine without FBS in the presence of selected cytokines and or cytokine cocktails over a period of 72 hrs.
Cells that were grown in 5% serum were stained with the following antibody cocktails: CD24FITC, CD44PE and CD24FITC, CD133PE. Cells were also stained with a fixable live/dead efluor dye 506 to exclude dead cells. In parallel, cells were grown in the presence of 5% serum to evaluate CSC markers.
(§1) Cells were fixed in 1% Paraformaldehyde for 15 minutes at room temperature and run on Flowsight using 2 lasers (488 nm at 60 mW and 405 nm at 30 mW). For cell lines, 100,000 events were collected whilst for enriched CTCs all events were collected until the sample finished.
(§2) Flow cytometry data was analysed using IDEAS software. Double events, out of focus events, CD45PercPCy5.5 positive cells (in case of enriched CTCs), dead cells and non-nucleated events were eliminated from the fluorescence analysis of the cell population. FIG. 2 depicts scatterplots of flow cytometry experiments showing the enriched CTCs stained with an antibody containing CD44 after treatment with various cytokines and cytokine cocktails. Hoescht 33258 dye was used to stain nuclei in the case of the HCT-15 cell line and enriched CTCs. All experiments were stained with a fixable live/dead dye eFluor 506 to exclude dead cells.
To evaluate which cocktail combinations were most likely involved in cell proliferation of presumed quiescent stem cells or de-differentiated stem cell-like cells, four cytokines, IL-6, HGF, PGE-2 and TGF-beta were added singly or in pairs to HCT-15 cells. Results of combinations that influenced cell proliferation of HCT-15 cells in culture are presented. […] FIG. 4 depicts cell proliferation of subpopulations in the HCT-15 cell line after exposure to various cytokines and cytokine cocktails.

[2] = test system: enriched circulating tumour cells from a patient with metastatic prostate cancer; assay: Cell proliferation / cancer stem cell markers (EpCAM, CD44, CD133) in enriched CTCs cultured with cytokine cocktails; assay type: cell-based, human; settings: for EpCAM + CD133+ cell subpopulation / EpCAM + CD133− cell subpopulation / EpCAM − CD133+ cell subpopulation / EpCAM − CD133− cell subpopulation: CD133 PE antibody cocktail; for EpCAM + CD44+ cell subpopulation / EpCAM + CD44− cell subpopulation / EpCAM − CD44+ cell subpopulation / EpCAM − CD44− cell subpopulation: cell culture period 8 days
Protocol: as §1
as §2, with “cocktails.” for “cocktails. Hoescht 33258 dye was used to stain nuclei in the case of the HCT-15 cell line and enriched CTCs. All experiments were stained with a fixable live/dead dye eFluor 506 to exclude dead cells.”
In order to determine if selected cytokines influence cell proliferation of circulating tumour cells (CTCs), whole blood was collected from a patient with metastatic prostate cancer. Circulating tumour cells were enriched from whole blood using RosetteSep CTC Enrichment cocktail. Briefly, samples of whole blood were incubated with RosetteSep (anti CD 56 for 20 minutes at room temperature). Phosphate buffered saline containing 2% Fetal Bovine Serum was added to the samples and layered on a Ficoll Paque gradient. After centrifugation, the supernatant which contained CTCs was washed twice with PBS containing 2% FBS. Equal volumes of the cell suspension were seeded into a 24-well ultra-low attachment polystyrene plate. […] FIG. 3 depicts scatterplots of flow cytometry experiments enriched CTCs stained with an antibody containing CD133 after treatment with various cytokines and cytokine cocktails.
FIG. 6 depicts cell proliferation of subpopulations in cultured CTCs after exposure to various cytokines and cytokine cocktails. Cells were stained using an antibody containing CD44 PE.
Cells were stained using an antibody containing CD133 PE.

[3] = test system: SW-620 cells; assay: SW-620 cells treated with cytokines with or without Irinotecan, flow cytometry for stem cell markers and apoptosis; assay type: cell-based, human; settings: SW-620, cytokines 24 hours then 2 μM Irinotecan 36 hours; zero in non-treated control cells
Protocol: SW-620 cells, a human colorectal adenocarcinoma cell line, were treated with cytokines alone or in combination including IL-6, TGF-beta, HGF, PGE-2, IL-6+PGE-2 and TGF-beta+HGF for 24 hours and compared to untreated SW-620 cells as control. Some treated and untreated SW-620 cells were then exposed to 2 μM Irinotecan for 36 hours at which point cells were harvested for flow cytometry to assess for stem cell markers and markers of apoptosis. The percentage of CD44+CD133− cells following treatment with various cytokine and cytokine cocktails is depicted in FIG. 10. Compared to non-cytokine treated cells, combinations with IL-6+PGE-2, and TGF-beta+HGF increased the number and percentage of cells that were CD44+CD133− as shown in FIG. 10 (stem cells). FIG. 11 depicts the percentage of CD44+CD133− cells following treatment with various cytokines and Irinotecan. […]
Additionally, the percentage of CD44-CD133+ cells following treatment with various cytokines and cytokines cocktails was determined as depicted in FIG. 16. The percentage of CD44-CD133+ cells following treatment with various cytokines and Irinotecan was measured as depicted in FIG. 17. The percentage of CD44-CD133+ cells following treatment with various cytokine cocktails and Irinotecan was measured as depicted in FIG. 18. […]

[4] = test system: Panc1, Panc1-gemr, Panc1-cisr and Panc1-gemr/cisr cells; assay: Immunocytochemistry of E-, N- and VE-cadherin on Panc1 and chemoresistant Panc1 cells after Tamiflu (FIG. 25); assay type: cell-based, human; settings: Tamiflu 600 μg/mL for 24 hours, Panc1 and drug resistant lines
Protocol: Turning to FIG. 25, oseltamivir phosphate by itself was able to reverse a partial EMT in human PANC1 cancer cell lines, including drug resistant cancer cell lines as evidenced by an upregulation in the epithelial marker E-cadherin and a downregulation in the mesenchymal marker N-cadherin. Expression of e-cadherin, n-cadherin, and Ve-cadherin on the surface of Pancl, Pancl-gemr, Pancl-cisr, and Pancl-gemr/cisr cells were determined following treatment with Tamiflu® 600 μg/mL for 24 hours. Immunocytochemistry was performed on fixed, nonpermeabilized cells. The indicated primary antibodies for Ecadherin, N-cadherin, and Ve-cadherin were used, followed by alexa Fluor® 594 (life Technologies inc, Burlington, ON, Canada) secondary antibody for the primary antibody against n-cadherin and Dylight™ 488 (santa cruz Biotechnology, inc, santa cruz, ca, Usa) secondary antibody for primary antibodies against e-cadherin and Ve-cadherin. The background controls had no primary antibody during the staining procedure. The stained cells were visualized after 24 hours using a Zeiss M2 Imager fluorescence microscope (Carl Zeiss ag, Oberkochen, germany) at 400× magnification. Images are representative of at least four fields of view in three separate trials. Quantitative analysis was done by assessing the density of cell staining corrected for background in each panel using corel Photo Paint 8.0 software (Corel Corporation, Ottawa, ON, Canada). each bar in the figures represents the mean (±standard error of the mean) corrected density of culture cell staining for equal cell density (5×10^5 cells) within the respective images. P-values represent significant differences at 95% confidence using Dunnett's multiple comparison test compared with untreated control group. (Abbreviations: 1° ab=primary antibody; Pancl-gemr=Pancl cells with established chemoresistance to 0.01 μM gemcitabine; Pancl-gemr/cisr=Pancl cells with established chemoresistance to a combination of 0.01 μM gemcitabine and 80 μM cisplatin; cad=cadherin; Bkg=background; se=standard error.)

[5] = test system: enriched circulating tumour cells from a patient with colorectal cancer; assay: Cultured enriched CTCs from a colorectal cancer patient treated with IL-6, IL-8 or PDGFBB (EpCAM, CD133, Lgr5 flow cytometry); assay type: cell-based, human; settings: cultured CTCs from colorectal cancer patient
Description: A blood sample was collected from a patient with colorectal cancer six days after surgery. Blood samples were enriched for CTCs using RosetteSep CD 56 kit according to standard protocol. Prior to cell culture, cells were stained with the following antibody cocktail: EpCAM A488, CD133PE, CD 45 PerCP Cy5.5, and Lgr5-PE-Vio770. Cells were either cultured in low attachment well plates without cytokines (control cells) or with three different cytokines (IL-6, IL-8 or PDGFBB).
Flow cytometry data was analysed using IDEAS software. Double events, out of focus events, CD45PercPCy5.5 positive cells, dead cells and non-nucleated events were eliminated from the fluorescence analysis of the cell population. Hoescht 33258 dye was used to stain nuclei of enriched CTCs. All experiments were stained with a fixable live/dead dye eFluor 506 to exclude dead cells.

[6] = listed as Oseltamivir Phosphate

Row | Compound | CD24 + CD44− cell subpopulation [1] | CD44 + CD24+ cell subpopulation [1] | CD44 + CD24− cell subpopulation [1] | CD44 − CD24− cell subpopulation [1] | EpCAM + CD133+ cell subpopulation [2] | EpCAM + CD133− cell subpopulation [2] | EpCAM − CD133+ cell subpopulation [2] | EpCAM − CD133− cell subpopulation [2] | EpCAM + CD44+ cell subpopulation ([2]; CD44PE antibody cocktail) | EpCAM + CD44− cell subpopulation ([2]; CD44PE antibody cocktail) | EpCAM − CD44+ cell subpopulation ([2]; CD44PE antibody cocktail) | EpCAM − CD44− cell subpopulation ([2]; CD44PE antibody cocktail) | also measured
1 | CCCCC[C@H](O)/C=C/[C@H]1[C@H](O)CC(=O)[C@@H]1C/C=C\CCCC(=O)O [PGE-2, prostaglandin E2, reference compound] | 58.7 | 7.3 | 0.61 | 32.4 | 10.4 percentages of gated subpopulations | 0 percentages of gated subpopulations | 86.7 percentages of gated subpopulations | 2.61 percentages of gated subpopulations | 27.2 percentage of gated cells | 1.75 percentage of gated cells | 4.23 percentage of gated cells | 65.5 percentage of gated cells | EpCAM-CD44+ cell sub-population ([2]; 8 days culture, no serum, CD44PE antibody cocktail): 4.23 % gated; percentage of CD44+CD133− stem cells [3]: enriched
2 | CCOC(=O)C1=C[C@@H](OC(CC)CC)[C@H](NC(C)=O)[C@@H](N)C1 [oseltamivir phosphate] | – | – | – | – | – | – | – | – | – | – | – | – | E-cadherin expression on cell surface [4]: upregulation; N-cadherin expression on cell surface [4]: downregulation; VE-cadherin expression on cell surface [4]: significant downregulation; E-cadherin expression on cell surface [4, 6]: statistically significant upregulation in the epithelial marker E-Cadherin in all 4 cell lines tested with the exception of the double resistant pancreatic cell line; N-cadherin expression on cell surface [4, 6]: Downregulation of N cadherin was seen in all cell lines tested
3 | HGF: Hepatocyte Growth Factor added to cancer cells in culture | 58.6 | 3.29 | 0.31 | 35.9 | 17.2 percentages of gated subpopulations | 0.2 percentages of gated subpopulations | 80.8 percentages of gated subpopulations | 1.58 percentages of gated subpopulations | 16.8 percentage of gated cells | 4.89 percentage of gated cells | 2.12 percentage of gated cells | 74.9 percentage of gated cells | –
4 | Il-8 | – | – | – | – | – | – | – | – | – | – | – | – | EpCAM + CD133+ cell subpopulation [5]: 0.13 percentages of gated subpopulations; EpCAM + CD133− cell subpopulation [5]: 2.51 percentages of gated subpopulations; EpCAM − CD133+ cell subpopulation [5]: 0.09 percentages of gated subpopulations; EpCAM − CD133− cell subpopulation [5]: 90.8 percentages of gated subpopulations
